Results published in US7317038B2, “Nerve regeneration promoters containing semaphorin inhibitor as the active ingredient” (Dainippon Sumitomo Pharma Co., Ltd., priority 2000, dated 2008).
“Also recorded” adds a separate entry of the source.

Tests used:
[1] = biological target: T1, mouse semaphorin 3A (Sema3A) (Mus musculus, UniProt O08665); experiment: Suppression of growth cone collapse activity of Sema3A (chick embryo dorsal root ganglions); assay type: cell-based
T1 sequence (O08665 21-772): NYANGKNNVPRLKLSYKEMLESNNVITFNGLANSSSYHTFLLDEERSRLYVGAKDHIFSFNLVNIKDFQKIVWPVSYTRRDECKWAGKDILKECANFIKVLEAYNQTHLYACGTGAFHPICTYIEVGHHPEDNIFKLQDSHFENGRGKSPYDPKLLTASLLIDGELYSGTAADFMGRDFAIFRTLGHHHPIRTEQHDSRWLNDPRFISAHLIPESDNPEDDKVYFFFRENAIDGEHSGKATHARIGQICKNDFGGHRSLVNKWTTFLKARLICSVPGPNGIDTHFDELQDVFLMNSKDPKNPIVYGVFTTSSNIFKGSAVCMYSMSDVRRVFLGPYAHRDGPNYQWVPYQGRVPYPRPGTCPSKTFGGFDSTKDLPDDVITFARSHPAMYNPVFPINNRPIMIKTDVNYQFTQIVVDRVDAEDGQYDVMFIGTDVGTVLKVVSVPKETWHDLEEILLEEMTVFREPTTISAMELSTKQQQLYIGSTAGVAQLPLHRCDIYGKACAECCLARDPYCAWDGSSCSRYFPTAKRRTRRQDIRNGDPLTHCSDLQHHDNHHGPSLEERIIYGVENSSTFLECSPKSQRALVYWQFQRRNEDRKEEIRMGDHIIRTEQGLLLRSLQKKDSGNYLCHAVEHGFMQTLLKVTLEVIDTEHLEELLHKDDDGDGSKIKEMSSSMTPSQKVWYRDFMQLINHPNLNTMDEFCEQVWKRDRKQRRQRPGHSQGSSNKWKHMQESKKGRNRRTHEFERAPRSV
Description: A 96-well plate (Sumitomo Bakelite Co., ltd. ) pre-coated with polylysine was further coated with laminine (20 μg/ml of laminine, for 1 hour at room temperature). Each well was added with 100 μl of medium (F12 medium containing 10% bovine fetal serum, 20 ng/ml of NGF, 100 units/ml of penicillin and 100 μg/ml of streptomycin) which media were then inoculated with dorsal root nerve ganglions excised from E7 (Embryonic day 7) chick embryo and were cultured for 16 to 20 hours under 5% CO2 and at 37° C. Subsequently, the object compounds were added to media at various concentrations and 2 units/ml of mouse semaphorin 3A (Sema3A) was added after cultivating for 1 hour. The cultures were further incubated for another 1 hour. Glutaraldehyde was quickly added therein after said 1 hour to make the final concentration 1%. The cultures were then left for 15 minutes at room temperature so that the tissue sections were fixed, and collapse rates of the growth cones were microscopically observed. A well with no addition of Sema3A was made the control.
The longitudinal and lateral axes in the figures represent the collapse rate of growth cones and the concentration of compounds, respectively. ●▪▴ show the results when Sema3A was added after the addition of the compounds and ◯[…]Δ show those when Sema3A was not added. Further, IC50 (μg/ml) of the inhibitors were determined by the method comprising: calculating the collapse rate of growth cone (A) % of the negative controls (neither compounds nor Sema3a was added); subsequently calculate the collapse rate of growth cone (B) % of the positive controls (compounds were not added but Sema3a was added); and the concentration was chosen for each compound from the chart where the collapse rate of growth cone met (A+B)/2(%), which was made IC50 level. The followings are the results.

[2] = system: adult rat models for olfactory nerve axotomy; experiment: In vivo nerve regeneration after olfactory nerve axotomy; conditions: for Positive section No. (which section from the vertex, average ± SE): HRP-positive glomerulus
Description: Male Wister rats (6.5-week-old) were purchased from CHARLES RIVER JAPAN, INC. and bred under free feeding and water uptake in the dedicated breeding room. A sample solution was prepared by diluting SPF-3059-1 to lmg/ml with PBS and filled in an osmotic pressure pump (alzet 2004, ALZA co., USA). A pump filled with PBS was used as a control. The sample solution and the like were prepared on the day before the operation and the osmotic pressure pump was bathed in PBS and placed overnight at room temperature. Just before the operation, a L-cannula was connected to the one end of a silicon tube filled with the sample solution and the like, and the other end of the tube was connected to the pump. A rat was anesthetized with pentbarbital (50 mg/kg, intrapenitrially injected), and its head was fixed to the stereotaxic apparatus. The scalp was incised along the median and the cranium above the olfactory bulb was opened to expose the olfactory bulb (anterior part). In order to axotomize olfactory nerve, a knife (a razor was cut into 1.5 mm width) was inserted in between the olfactory bulb and the cribriform plate. The olfactory nerve which is projected on the upper olfactory bulb is axotomized by this handling. The L-cannula was fixed to the cranium-opening above the olfactory with surgical instant adhesive and dental cement so that the edge of cannula is located in the vicinity of the incision. The sample output was set to 6 μl (6 μg)/day. The pump was subcutaneously inserted in the dorsal neck and the incision was sutured. Then the animal was recovered.
Two and three weeks after the operation, the rat anesthetized with pentbarbital was laid on its back and injected with 100 μl of 1% WGA-HRP/PBS (TOYOBO) into the nasal cavity using a microsyringe. 24 hours after the HRP injection, the rat was further anesthetized with pentbarbital (50 mg/kg, intrapenitrially injected) and was thoracically incised. […]
Regeneration of olfactory nerves was quantitatively assessed by observing in which horizontal section of the olfactory bulb from the vertex did HRP-positive glomerulus emerge. […]

CC(=O)c1c(C)c(C(=O)C2COc3cc(O)c(O)c(C(=O)O)c3C2=O)cc2c(=O)c3c(C(=O)O)c(O)c(O)cc3oc12 (centres unmarked) [SPF-3059-1]
IC50 ([1]; E7 chick embryo dorsal root ganglions, 2 units/ml Sema3A added 1 hour after compound, concentration where collapse rate = (A+B)/2, read-out: IC50 of inhibition of the growth cone collapse activity of Sema3A (converted)): < 173 nM
inhibition of growth cone collapse activity of Sema3A (in words) ([1]; chick embryo dorsal root ganglions): inhibit the growth cone collapse activities of Sema3A in a concentration-dependent manner; also recorded: potently inhibit semaphorin
in vivo nerve-regeneration promoting action in olfactory nerve axotomy (in words) [2]: marked nerve-regeneration promoting action
Positive section No. (which section from the vertex, average ± SE) ([2]; Week 2, 6 μg/day by osmotic pump near incision): 8.3 ± 1.9
Positive section No. (which section from the vertex, average ± SE) ([2]; Week 3, 6 μg/day by osmotic pump near incision): 5.2 ± 1.9
